US11891365B2, “3-alkyl-4-amido-bicyclic [4,5,0] hydroxamic acids as HDAC inhibitors” (Valo Health, Inc., priority 2015, dated 2024)

Target: T1, Full length human recombinant HDAC6 protein (Homo sapiens, UniProt Q9UBN7)
T1 sequence (Q9UBN7 1-1215): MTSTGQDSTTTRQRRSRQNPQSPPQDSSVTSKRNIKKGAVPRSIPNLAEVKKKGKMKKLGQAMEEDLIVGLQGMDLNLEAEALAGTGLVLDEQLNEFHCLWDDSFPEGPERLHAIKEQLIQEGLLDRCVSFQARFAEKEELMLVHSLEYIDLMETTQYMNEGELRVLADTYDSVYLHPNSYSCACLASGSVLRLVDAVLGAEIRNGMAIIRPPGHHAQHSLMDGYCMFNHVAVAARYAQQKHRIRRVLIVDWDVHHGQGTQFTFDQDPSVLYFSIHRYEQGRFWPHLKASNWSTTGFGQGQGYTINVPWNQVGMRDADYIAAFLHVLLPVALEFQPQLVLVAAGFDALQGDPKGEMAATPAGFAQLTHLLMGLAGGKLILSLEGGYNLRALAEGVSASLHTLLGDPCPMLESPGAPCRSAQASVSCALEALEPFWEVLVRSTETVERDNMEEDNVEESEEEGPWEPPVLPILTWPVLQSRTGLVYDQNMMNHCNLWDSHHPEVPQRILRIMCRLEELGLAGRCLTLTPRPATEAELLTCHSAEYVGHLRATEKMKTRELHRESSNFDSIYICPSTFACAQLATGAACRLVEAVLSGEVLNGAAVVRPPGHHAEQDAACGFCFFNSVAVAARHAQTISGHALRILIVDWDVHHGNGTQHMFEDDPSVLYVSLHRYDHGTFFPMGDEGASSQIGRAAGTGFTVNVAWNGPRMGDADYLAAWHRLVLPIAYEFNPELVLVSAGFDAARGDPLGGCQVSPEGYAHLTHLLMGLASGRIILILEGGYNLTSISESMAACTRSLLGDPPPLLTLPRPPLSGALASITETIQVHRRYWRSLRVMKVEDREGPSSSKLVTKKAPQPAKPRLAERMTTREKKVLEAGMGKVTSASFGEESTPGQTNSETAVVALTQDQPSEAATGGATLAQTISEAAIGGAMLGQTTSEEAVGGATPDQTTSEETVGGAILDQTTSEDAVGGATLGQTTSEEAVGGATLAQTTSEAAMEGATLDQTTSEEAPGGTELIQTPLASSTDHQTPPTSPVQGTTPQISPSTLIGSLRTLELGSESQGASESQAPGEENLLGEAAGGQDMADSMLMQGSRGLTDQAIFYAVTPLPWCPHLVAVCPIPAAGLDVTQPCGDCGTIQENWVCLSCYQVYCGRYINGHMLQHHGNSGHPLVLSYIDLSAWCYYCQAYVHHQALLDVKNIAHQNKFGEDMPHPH
Assay: In vitro histone deacetylase assay: enzymatic HDAC6 electrophoretic mobility shift assay
Assay type: biochemical
Settings: 1 nM enzyme, 2 μM peptide substrate RHKK(Ac)-NH2, 25° C., 12 concentrations; read-out: Inhibitory Concentration (IC50) Values against HDAC6, Activity Range

IC50 [nM] | SMILES
100 to 500 | CC(C)(C)OC(=O)N1CC2(CC(C(=O)N3CCOc4cc(C(=O)NO)ccc4C3)CO2)C1 (stereo not shown) [tert-butyl 7-(8-(hydroxycarbamoyl)-2,3,4,5-tetrahydrobenzo[f][1,4]oxazepine-4-carbonyl)-5-oxa-2-azaspiro[3.4]octane-2-carboxylate]
100 to 500 | CC(C)(C)OC(=O)N1CC2(CC(C(=O)N3CCOc4cc(C(=O)NO)ccc4C3)CS2(=O)=O)C1 (stereo not shown) [tert-butyl 7-(8-(hydroxycarbamoyl)-2,3,4,5-tetrahydrobenzo[f][1,4]oxazepine-4-carbonyl)-5-thia-2-azaspiro[3.4]octane-2-carboxylate 5,5-dioxide]
≤ 100 | CC(C)(C)OC(=O)N1CCC2(CCC(C(=O)N3CCOc4cc(C(=O)NO)ccc4C3)CC2)C1 (stereo not shown) [tert-butyl 8-(8-(hydroxycarbamoyl)-2,3,4,5-tetrahydrobenzo[f][1,4]oxazepine-4-carbonyl)-2-azaspiro[4.5]decane-2-carboxylate]
100 to 500 | CC(C)(C)OC(=O)N1CCC2(CCC(C(=O)N3CCOc4cc(C(=O)NO)ccc4C3)CC2)CC1 [tert-butyl 9-(8-(hydroxycarbamoyl)-2,3,4,5-tetrahydrobenzo[f][1,4]oxazepine-4-carbonyl)-3-azaspiro[5.5]undecane-3-carboxylate]
